From PMC4431184, “The Use of the LanthaScreen TR-FRET CAR Coactivator Assay in the Characterization of Constitutive Androstane Receptor (CAR) Inverse Agonists” (Sensors (Basel, Switzerland), 2015)
Blank lines part the entries; values can stand above or below the compound they belong to.

Tests used:
[1] = target: T1, human CAR ligand-binding domain (LBD) (Homo sapiens, UniProt Q14994); test: LanthaScreen TR-FRET CAR Coactivator Assay; assay type: biochemical; settings: for IC50: IC50 (95% Conf. Interv.), TR-FRET CAR Assay; for fold activation compared to vehicle control: CITCO 10 μM
T1 sequence (Q14994 109-352 limits assumed): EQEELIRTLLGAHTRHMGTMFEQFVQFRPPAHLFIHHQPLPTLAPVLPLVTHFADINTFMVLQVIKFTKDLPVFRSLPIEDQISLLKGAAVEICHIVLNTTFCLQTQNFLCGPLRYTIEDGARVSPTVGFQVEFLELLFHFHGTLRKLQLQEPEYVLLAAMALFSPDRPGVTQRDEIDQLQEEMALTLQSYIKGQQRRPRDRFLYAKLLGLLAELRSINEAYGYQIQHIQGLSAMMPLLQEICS
Description: The LanthaScreen^TMTR-FRET CAR Coactivator Binding Assay (Cat. No. PV4836, now produced by Thermo) was used with slight modifications of the manufacturer’s protocol. The assay uses two fluorophores: a terbium-labeled anti-GST antibody interacting with glutathione-S-transferase (GST) tagged human CAR ligand-binding domain (LBD) and a fluorescein-labeled PGC1α coactivator peptide (Figure 1). […] Thus, this energy transfer is detected by an increase in the fluorescence emission of the acceptor (fluorescein) and a decrease in the fluorescence emission of the donor (terbium). To quantify the process, TR-FRET is expressed as a ratio of the intensities of the acceptor and donor fluorophores. […] Incubation time was optimized from 1 to 4 h at room temperature and protected from light. […] According to the recommended protocol of the manufacturer, CAR-LBD is added to the solution of test compounds, followed by the addition of a mixture of the fluorescein-coactivator peptide and terbium-labeled anti-GST antibody. In the study we also tested to determine if the order of adding the constituents in the mixture may have an influence on the sensitivity and reproducibility of the assay. […] The terbium was excited using a 340-nm excitation filter with a 30-nm bandwidth and fluorescein was excited with the first emission peak of terbium centered at 495 nm. Energy transfer to fluorescein emission (520 nm) is then measured in the silent region between the first two terbium emission peaks centered at 490 and 545 nm (see Graphical Abstract). […] Delay time was set at 100 μs and integration time 200 μs. Gains set to 100 were the use constant in all the experiments. The 520 nm/495 nm TR-FRET ratio was then calculated. […] The values above the baseline represent activation of CAR LBD-PGC1α interaction and agonistic activity of the tested ligand. The experiments were performed at least three times in quadruplicates. Data are presented as the means and S.D. from three independent experiments (n = 3). […] Dose-response curves were generated by plotting the emission TR-FRET ratio vs. the log of a ligand (in μM). To determine the half maximal inhibitory concentration (IC50) value, the data were fitted using an equation for a sigmoidal dose response inhibition (with a varying slope) using the software GraphPad™ PRISM version 6.05. Z-factors were calculated using the method of Zhang et al..

human CAR LBD = target: T2, human CAR LBD (Homo sapiens, UniProt Q14994); test: CAR LBD assembly assay (GAL4/VP16 luciferase reporter in HepG2 cells); assay type: cell-based; settings: CITCO 1 µM, up to highest studied concentration 30 µM
T2 construct: encoding C (151–349 aa, helices 3–12, pCAR-C/VP16); N (103–150 aa, helix 1, pCAR-N/GAL4) terminal parts of human CAR LBD; expressed in transfected cells; host or cells: HepG2
T2 sequence (Q14994 103-150 isoform Q14994-2): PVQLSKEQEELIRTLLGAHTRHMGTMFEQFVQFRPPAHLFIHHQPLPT
T2 sequence (Q14994 151-348 isoform Q14994-2): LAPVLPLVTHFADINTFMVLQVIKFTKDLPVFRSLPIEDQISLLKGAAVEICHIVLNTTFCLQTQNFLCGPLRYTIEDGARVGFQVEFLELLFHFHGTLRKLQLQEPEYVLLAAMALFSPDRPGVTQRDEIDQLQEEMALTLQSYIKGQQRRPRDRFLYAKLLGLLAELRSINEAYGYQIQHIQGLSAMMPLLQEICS
Procedure: The CAR LBD assembly assay was performed according to the protocol we described in our latest report. The CAR LBD assembly assay is based on two hybrid expression constructs encoding C (151–349 aa, helices 3–12, pCAR-C/VP16) and N (103–150 aa, helix 1, pCAR-N/GAL4) terminal parts of human CAR LBD that are co-transfected together with the pGL5-luc luciferase gene reporter plasmid (Promega) containing GAL4 binding sites. When the CAR LBD interacts with a ligand (both agonist and antagonist), connection of the helix 1 to CAR LBD helices 3–12 promotes firefly luciferase activation. Thus, the assay monitor interaction of CAR LBD with ligands rather than its activation or deactivation.

SMILES: C[C@]12CC[C@@H](O)C[C@@H]1CC[C@@H]1[C@@H]2CC[C@]2(C)C=CC[C@@H]12 [Androstenol, 5α-androst-16-en-3α-ol]
- IC50 ([1]; CITCO 1 μM, antagonist mode, with agonist CITCO 1 μM): 313 µM
- IC50 ([1]; No CITCO, inverse agonist mode, reduction of CAR constitutive activity): 0.35 µM
- concentration at which consistent antagonistic effect on CITCO was observed ([1]; with CITCO 1 μM): 30 µM
- inhibition of CITCO-mediated CAR LBD interaction with PGC1α ([1]; with CITCO 1 μM, serial dilution): did not show any significant inhibition
- inhibition of the activity of CITCO (human CAR LBD): weakest inhibition
- inhibition of the activity of CITCO (human CAR LBD; listed as androstenol): weaker inhibition

SMILES: Clc1ccc(-c2nc3sccn3c2C=NOCc2ccc(Cl)c(Cl)c2)cc1 [CITCO, 6-(4-Chlorophenyl)imidazo[2,1-b][1,3]thiazole-5-carbaldehyde O-(3,4-dichlorobenzyl)oxime]
- fold activation compared to vehicle control ([1]; modified order: CAR-LBD and fluorescein-/terbium-labeled reagents before the agonist (Figure 2B)): 1.94 fold
- fold activation compared to vehicle control ([1]; modified order: ligand, fluorescein-PGC1α and Tb antibody, then CAR-LBD (Figure 2A)): 2.26 fold
- fold activation compared to vehicle control ([1]; standard procedure (Figure 2C)): 2.56 fold

- effect on interaction of CAR LBD with the PGC1α coactivator ([1]; 10 μM, no CITCO): almost completely inhibited
- effect on constitutive activity of CAR ([1]; 30 μM): abolish the constitutive activity of CAR
- effect on CITCO-mediated CAR LBD interaction with PGC1α ([1]; 30 μM, with CITCO): completely abrogated the effect of CITCO
- effect on constitutive activity of CAR ([1]; concentrations of 20 and 30 μM): abolished constitutive activity of CAR
- concentration with significant inhibition of CAR LBD constitutive activity ([1]; no CITCO): 0.01 µM
SMILES: Clc1ccccc1C(c1ccccc1)(c1ccccc1)n1ccnc1 [Clotrimazole, 1-[(2-Chlorophenyl)diphenylmethyl]-1H-imidazole]
